According to patent US11505574B2, “Modulation of P53 for the treatment of cancer” (THE REGENTS OF THE UNIVERSITY OF CALIFORNIA, priority 2016, dated 2022):

Legend:
[1] = system: p53; assay: Western blot for p53 and downstream targets in RKO cells treated with peptides; type: cell-based, human; details: RKO cells
[2] = biological target: T1, eIF4E association with p53 mRNA (Homo sapiens, UniProt P06730); assay: RNA-ChIP assay in RKO cells; type: cell-based; details: 1.5 μM, 2 hours, versus Pen-Ctrl (FIG. 33A)
T1 construct: endogenous in cells; host or cells: RKO cells
Description: RNA-ChIP assays were performed to examine how peptides of the present invention affect eIF4E association with p53 mRNA (FIG. 33). For the experiments shown in FIG. 33A, 4 10 cm plates were seeded with 2×10^6 RKO cells the night before. The next morning 2 plates were treated with 1.5 μM Pen-Ctrl (SEQ ID NO:10) and 2 plates were treated with 1.5 μM Pen-Pep8 (SEQ ID NO:50) for 2 hours. RKO cells were harvested in 1 mL per plate polysome lysis buffer, then centrifuged at 16,000×G for 15 minutes in a microcentrifuge at 4° C. The supernatant was pooled from all aliquots and transferred to a 15 ml tube. Equilibration was performed with 50% protein A-agarose slurry in polysome lysis buffer by washing twice with 0.5 mL of polysome lysis buffer and then restoring the original volume with lysis buffer. 3×200 μL tubes of agarose. For preclearing, one aliquot of equilibrated protein A-agarose beads was added to the lysate (50 μL of 50% agarose per 1 mL lysate) and incubated with rotation at 4° C. for 1 hour. Lysate was divided into microcentrifuge tubes and centrifuged briefly for 30 seconds to collect beads. Supernatant was pooled and transferred to a new 15 mL tube. After repeating the preclearing and bead collection steps, lysate was divided into 1 mL aliquots (i.e., 2×1 mL Pen-Ctrl and 2×1 mL Pen-Pep8). […]

[3] = system: MCF7 tumor spheres; assay: MCF7 tumor sphere assay; type: cell-based, human; details: MCF7 cells; 5 μM; 6.25 ng/mL doxorubicin; 7 days (FIGS. 34E, 34F)
Description: For the experiments shown in FIG. 34E, MCF7 cells were plated at a density of 20,000 cells per well using 2 mL Mammocult media in 6-well ultra-low adherent plates. The following day, cells were treated with Pen-Ctrl or Pen-Pep8 at a concentration of 5 μM. Peptides were added to each well for 20 minutes followed by 6.25 ng/mL doxorubicin. Cells were grown for 7 days and then the number of tumor spheres that were larger than 50 μm in diameter were counted (i.e., 20 10× photos were randomly taken and tumor spheres counted from the digital photos). For the graph shown in FIG. 34F, statistical analysis was performed using the student's t-test (n=3; *p≤0.05).
For the experiments shown in FIG. 36C, MCF7 cells were plated at a density of 20,000 cells per well using 2 mL Mammocult media in 6-well ultra-low adherent plates. The following day, cells were treated with 150 nM Cyc-Ctrl or Cyc-Pep8 (SEQ ID NO:5). 150 nM Cyc-Ctr/Pep8 was incubated in 100 μL serum-free DMEM with 3 μg PEP1 for 25 minutes before being added to the cells. After 20 minutes, 3.125 ng/mL doxorubicin was added to the cells for 7 days. Cells were grown for 7 days and then tumor spheres were counted that were larger than 50 μm in diameter (i.e., 20 10× photos were randomly taken and tumor spheres were counted from the digital photos).

T1 sequence (P06730 2-217 limits assumed): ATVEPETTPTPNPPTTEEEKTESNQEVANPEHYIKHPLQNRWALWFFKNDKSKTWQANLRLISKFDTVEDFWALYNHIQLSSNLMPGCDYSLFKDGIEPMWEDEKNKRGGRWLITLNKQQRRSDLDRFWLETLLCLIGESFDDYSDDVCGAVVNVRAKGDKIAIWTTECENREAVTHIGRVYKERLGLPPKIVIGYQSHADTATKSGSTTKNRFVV

**Q.** Which “sensitization to low-dose etoposide (p53 Western blot)” value ([1]; 1.5 μM for 20 minutes then 0.125 ng/mL etoposide 18 hours (FIG. 34I)) does the source give for “RQIKIWFQNRRMKWKKYPYAASPA [Pen-Pep8, Penetratin fused to Pep8]” here?
**A.** also to low-dose etoposide

**Q.** What about the “sensitization to low-dose doxorubicin (p53 Western blot)” value ([1]; 1.5 μM for 20 minutes then 6.25 ng/mL doxorubicin 18 hours (FIG. 34I)) of the same sequence?
**A.** sensitized to low-dose doxorubicin

**Q.** And the “p53 expression with low dose doxorubicin (Western blot)” value ([1]; 2.5 μM for 20 minutes then 6.25 ng/mL doxorubicin 18 hours (FIG. 34A))?
**A.** robust p53 expression

**Q.** What about the “p53 expression (Western blot)” value ([1]; 2.5 μM, 18 hours (FIG. 32B)) of the same sequence?
**A.** induced p53 expression

**Q.** And the “eIF4E association with p53 mRNA (RNA-ChIP)” value [2]?
**A.** increased eIF4E association with p53 mRNA

**Q.** And the “number of tumor spheres larger than 50 μm in diameter, sensitization to low dose doxorubicin” value [3]?
**A.** sensitized cells to low dose doxorubicin
